Reference: paper PMC10281575, “PfCRT mutations conferring piperaquine resistance in falciparum malaria shape the kinetics of quinoline drug binding and transport” (PLOS Pathogens, 2023)
Values joined by “and” are separate entries in the source; they are usually repeats but may differ in a detail not shown here. Equal values may be shown once.

Molecular target: T1, PfCRT^Dd2_G353V (Plasmodium falciparum, UniProt Q8IBZ9, A220S/G353V/I356T/K76T/M74I/N326S/N75E/Q271E/R371I)
T1 construct: expressed in transfected cells; host or cells: Xenopus laevis oocytes injected with in vitro transcribed RNA (pSP64T)
T1 sequence (Q8IBZ9 1-424 M74I/N75E/K76T/A220S/Q271E/N326S/G353V/I356T/R371I): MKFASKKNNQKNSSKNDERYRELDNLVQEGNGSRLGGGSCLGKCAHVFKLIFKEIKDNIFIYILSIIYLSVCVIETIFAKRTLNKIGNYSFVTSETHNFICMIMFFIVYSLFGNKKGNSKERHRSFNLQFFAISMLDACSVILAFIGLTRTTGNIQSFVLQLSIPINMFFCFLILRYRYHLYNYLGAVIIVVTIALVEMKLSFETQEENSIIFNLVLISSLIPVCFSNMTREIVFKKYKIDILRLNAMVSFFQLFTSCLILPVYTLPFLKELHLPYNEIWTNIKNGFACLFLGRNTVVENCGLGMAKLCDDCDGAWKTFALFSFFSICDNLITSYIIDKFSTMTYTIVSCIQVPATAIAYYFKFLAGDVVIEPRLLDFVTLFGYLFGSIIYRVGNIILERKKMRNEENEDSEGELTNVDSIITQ
Assay: Verapamil inhibition of PfCRT-mediated CQ and PPQ transport in oocytes, PfCRT^Dd2_G353V
Assay type: cell-based
Details: individual replicates (S3 Fig)
Procedure: In all cases, the PfCRT-mediated CQ and PPQ transport was inhibited in the presence of 100 μM verapamil (S3 Fig).
Drug transport assays were performed as previously described. Briefly, measurements of radiolabeled drug uptake were made over 1 h, unless otherwise specified. […] Where specified, one or more unlabeled drugs were also present at the indicated concentrations. The direction of drug transport in the assays is from the extracellular medium (pH 6) into the oocyte cytosol (pH 7.2), which corresponds to the efflux of CQ or PPQ from the acidic digestive vacuole (pH 5.2) into the parasite cytosol (pH 7.2). The uptake assays were terminated by removing the oocytes from the reaction medium and washing them three times with 2 mL of ice-cold ND96 buffer. Each oocyte was transferred to a separate scintillation vial and lysed by the addition of 200 μL of a 5% SDS solution. The radioactivity in the sample was measured using a liquid scintillation analyser Tri-Carb 4910 TR (PerkinElmer). Water-injected oocytes were analyzed in parallel as a negative control. The buffer from each condition was measured in duplicate in parallel to each experiment to transform counts per minute into pmol of drug. Drug uptake attributable to PfCRT was determined by subtracting the background uptake from water-injected oocytes from that of PfCRT-expressing oocytes. In all cases, at least three independent experiments were performed on oocytes from different frogs, and for each condition in an experiment, measurements were made from 10 oocytes per treatment.
Supplementary file ppat.1011436.s006.tif: S3 Fig Verapamil inhibits PfCRT-mediated transport of CQ and PPQ. […] Left panels, data is shown as individual biological replicates (coloured symbols) overlaid onto bars representing the Mean ± S.E.M. (error bars). A one-tailed Student’s t-test was performed between untreated (no VP) and treated (+ 100 μM VP) samples, and the obtained p values are shown. Right panels, the uptake in VP-treated samples was divided by the uptake in their corresponding untreated pairs and subtracted from 100% to get the percentage of uptake inhibition mediated by the presence of 100 μM verapamil in the extracellular medium. Error bars are S.E. (TIF) Click here for additional data file.

| Compound | PfCRTDd2_G353V-mediated CQ transport (50 µM CQ + 100 µM VP) | PfCRTDd2_G353V-mediated CQ transport (50 µM CQ) | PfCRTDd2_G353V-mediated PPQ transport (50 µM PPQ + 100 µM VP) | PfCRTDd2_G353V-mediated PPQ transport (50 µM PPQ) |
| --- | --- | --- | --- | --- |
| CCN(CC)CCCC(C)Nc1ccnc2cc(Cl)ccc12 (stereo not shown) [CQ, chloroquine] | 3.530 pmol oocyte-1 h-1 and 3.520 pmol oocyte-1 h-1 and 2.870 pmol oocyte-1 h-1 and 2.520 pmol oocyte-1 h-1 and 3.380 pmol oocyte-1 h-1 | 4.740 pmol oocyte-1 h-1 and 5.010 pmol oocyte-1 h-1 and 2.880 pmol oocyte-1 h-1 and 3.920 pmol oocyte-1 h-1 and 4.760 pmol oocyte-1 h-1 | – | – |
| Clc1ccc2c(N3CCN(CCCN4CCN(c5ccnc6cc(Cl)ccc56)CC4)CC3)ccnc2c1 [PPQ, piperaquine] | – | – | 18.21 pmol oocyte-1 h-1 and 25.90 pmol oocyte-1 h-1 and 37.78 pmol oocyte-1 h-1 and 29.33 pmol oocyte-1 h-1 and 30.34 pmol oocyte-1 h-1 | 29.38 pmol oocyte-1 h-1 and 45.38 pmol oocyte-1 h-1 and 21.36 pmol oocyte-1 h-1 and 40.00 pmol oocyte-1 h-1 and 56.34 pmol oocyte-1 h-1 and 56.46 pmol oocyte-1 h-1 and 95.52 pmol oocyte-1 h-1 and 62.83 pmol oocyte-1 h-1 |
